Results reported in patent publication US10647680B2, “Urea compound, preparation method therefor and medical use thereof” (Ancureall Pharmaceutical (Shanghai) Co., Ltd., priority 2016, dated 2020).

Columns and labels:
Format in all cases: in vitro ADME
CYP2B6 = target: T1, CYP2B6 (Homo sapiens, UniProt P20813); experiment: P450 enzyme inhibition, CYP2B6; details: human liver microsomes
T1 construct: human liver microsomes (BD Gentest) (0.5 mg/mL); tissue BD Gentest; host or cells: human liver microsomes
T1 sequence (P20813 1-491): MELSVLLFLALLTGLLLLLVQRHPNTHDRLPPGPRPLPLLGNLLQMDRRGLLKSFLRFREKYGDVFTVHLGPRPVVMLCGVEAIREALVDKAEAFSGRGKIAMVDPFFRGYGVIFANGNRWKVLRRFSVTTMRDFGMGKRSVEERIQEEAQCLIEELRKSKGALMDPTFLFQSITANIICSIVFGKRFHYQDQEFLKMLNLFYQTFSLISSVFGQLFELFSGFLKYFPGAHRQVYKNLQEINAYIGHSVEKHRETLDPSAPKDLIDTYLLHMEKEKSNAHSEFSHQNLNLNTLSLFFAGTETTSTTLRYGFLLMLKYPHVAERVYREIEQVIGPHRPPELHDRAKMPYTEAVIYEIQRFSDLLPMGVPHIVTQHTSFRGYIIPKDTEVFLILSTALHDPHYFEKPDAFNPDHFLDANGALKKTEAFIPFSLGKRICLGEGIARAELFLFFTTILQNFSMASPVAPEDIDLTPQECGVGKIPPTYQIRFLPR
Description: (§1) Eight cytochrome p450 enzyme inhibition reactions of human liver microsomes were performed using compound 77 of the present invention as a representative example.
(§2) The main reaction systems and processes: in 37° C. water bath, the test compounds (7 concentrations, 0, 0.25, 0.5, 5, 10, 25, and 50 uM; the final methanol concentration was 1% in the system), human liver microsomes (BD Gentest) (0.5 mg/mL) and reducing coenzyme II (Roche 10621706001) (1 mg/mL) and the corresponding cytochrome p450 enzyme probe substrate were co-incubated for 5 to 20 minutes. Among them, (1) the probe substrate for CYP1A2 was Phenacetin ([…]) (Sigma), and the selective inhibitor alpha-naphthoflavone (2 uM) (Sigma) was for parallel detection as positive control, and they were incubated for 20 minutes. (2) The probe substrate for CYP2b6 was Bupropion (40 uM) (Sigma) and the selective inhibitor Ticlopidine (10 uM) (Sigma) was for parallel detection as positive control, and they were incubated for 20 minutes. (3) The probe substrate of CYP2C8 was Amodiaquine (1 uM) (Sigma), and the selective inhibitor Montelukast (10 uM) (Sigma) was for parallel detection as positive control, and they were incubated for 20 minutes. (4) The probe substrate for CYP2C9 was Diclofenac (2.5 uM) (Sigma), and the selective inhibitor Sulphaphenazole (10 uM) (Sigma) was for parallel detection as positive control, and they were incubated for 20 minutes. (5) The probe substrate for CYP2C19 was Mephenytoin (40 uM) (Sigma), and the selective inhibitor Ticlopidine (10 uM) (Sigma) was for parallel detection as positive control, and they were incubated for 20 minutes. (6) The probe substrate for CYP2D6 was Dextromethorphan (5 uM) (Sigma), and the selective inhibitor Quinidine (10 uM) (Sigma) was for parallel detection as positive control, and they were incubated for 20 minutes. (7) The probe substrates for CYP3A4-T and CYP3A4-M were Testosterone (5 uM) (Sigma) and Midazolam (5 uM) (Sigma), respectively, and the selective inhibitor was Ketoconazole (1 uM) (Sigma), they were detected in parallel as positive control, and incubated for 5 minutes. The reaction system was quenched by adding methanol containing the corresponding internal standard. The internal standard compound was Tolbutamide (Sigma). The concentration of the corresponding metabolites was determined by LC/MS/MS. For the data analysis, the decrease in peak area of the metabolite of the sample after addition of compound 77 relative to the peak area of the metabolite of the solvent control sample was used to calculate the IC50 (concentration of the test substance at 50% inhibition). The percentages of peak areas of metabolites of CYP1A2, CYP2B6, CYP2C8, CYP2C9, 15CYP2C19, CYP2D6, CYP3A4-T, and CYP3A4-M probe substrates after addition of different concentrations of compound 77 and selective inhibitors relative to the solvent control peak areas were shown in the Table 7.

[1] = Metabolic stability in rat liver microsomes; details: rat liver microsome
Description: The experiment on the compound stability in rat liver microsomes was performed using compound 77 of the present invention as a representative example.
Procedure: The mixed reaction solution containing reducing coenzyme II (1 mg/ml, Roche 10621706001), rat liver microsomes (0.5 mg/ml, BD Gentest), phosphate buffer (0.1M) and ionized water was prepared according to a certain ratio, and then the reaction solution was placed in a 37° C. water bath and preheated for 2 minutes. A certain amount of compound 77 or reference substance was added to the prepared mixed reaction solution to start the reaction. In the final reaction system, the concentration of compound 77 or the positive control midazolam (National Institutes for Food and Drug Control) was 2 uM, and water was used instead of reducing coenzyme II as a negative control. […] The ratio of mean peak area of compound 77 to the mean peak area of internal standard at each time point was calculated, and the percentage of this ratio to that at time point 0 was calculated, and then change in this percentage was used to indicate the metabolic stability of the compound 77. […]

CYP2D6 = target: T2, CYP2D6 (Homo sapiens, UniProt P10635); experiment: P450 enzyme inhibition, CYP2D6; details: human liver microsomes
T2 construct: human liver microsomes (BD Gentest) (0.5 mg/mL); tissue BD Gentest; host or cells: human liver microsomes
Description: as §1, §2

T2 sequence (P10635 whole entry): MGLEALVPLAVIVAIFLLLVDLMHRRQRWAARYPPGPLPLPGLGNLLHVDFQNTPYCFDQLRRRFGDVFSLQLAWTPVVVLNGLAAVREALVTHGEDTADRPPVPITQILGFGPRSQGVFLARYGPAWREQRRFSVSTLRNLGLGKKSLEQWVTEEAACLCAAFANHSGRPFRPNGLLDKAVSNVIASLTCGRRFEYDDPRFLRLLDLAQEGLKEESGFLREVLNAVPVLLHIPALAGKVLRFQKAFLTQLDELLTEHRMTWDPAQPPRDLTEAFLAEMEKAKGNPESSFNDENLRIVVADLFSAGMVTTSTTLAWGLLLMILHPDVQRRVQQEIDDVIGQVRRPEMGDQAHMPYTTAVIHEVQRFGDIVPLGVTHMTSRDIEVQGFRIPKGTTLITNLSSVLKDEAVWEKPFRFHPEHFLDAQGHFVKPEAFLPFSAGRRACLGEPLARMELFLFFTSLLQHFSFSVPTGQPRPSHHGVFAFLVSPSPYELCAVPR

COCCOc1ccc2c(c1)ncn2-c1ccc(NC(=O)Nc2cc(C(C)(C)C)n[nH]2)cc1 [Compound 77, 1-(5-tert-butyl-2H-pyrazol-3-yl)-3-{4-[5-(2-methoxyl-ethoxyl)-benzimidazol-1-yl]-phenyl}-urea]
CYP2B6 Remaining % (CYP2B6; Concentration 0.25 uM): 106.1%
CYP2B6 Remaining % (CYP2B6; Concentration 0.5 uM): 109.6%
CYP2B6 Remaining % (CYP2B6; Concentration 5 uM): 100.4%
CYP2B6 Remaining % (CYP2B6; Concentration 10 uM): 90.1%
CYP2B6 Remaining % (CYP2B6; Concentration 25 uM): 64.6%
CYP2B6 Remaining % (CYP2B6; Concentration 50 uM): 40.1%
IC50 (CYP2B6; read-out: half-inhibitory concentration (IC50) of CYP2B6): 39 µM
elimination rate constant ([1]; 2 uM): 0.0031
half-life at 2 uM ([1]; rat liver microsomes): 3.73 h
CYP2D6 Remaining % (CYP2D6; Concentration 0.25 uM): 105.1%
CYP2D6 Remaining % (CYP2D6; Concentration 0.5 uM): 97.7%
CYP2D6 Remaining % (CYP2D6; Concentration 5 uM): 98.8%
CYP2D6 Remaining % (CYP2D6; Concentration 10 uM): 96.3%
CYP2D6 Remaining % (CYP2D6; Concentration 25 uM): 90.3%
CYP2D6 Remaining % (CYP2D6; Concentration 50 uM): 64.9%
IC50 (CYP2D6; read-out: half-inhibitory concentration (IC50) of CYP2D6): > 50 µM
